Source: US10085993B2, “Tablet formulation of 2-fluoro-N-methyl-4-[ 7-( quinolin-6-ylmethyl) imidazo [1,2-B] [1,2,4] triazin-2-yl] benzamide” (Novartis AG, priority 2014, dated 2018)
Structures can show the parent of a compound that is named as a salt.

Legend:
Gelling behavior = assay type: physicochemical; details: gelling can compromise tablet disintegration and dissolution rate
Excerpt: 2-fluoro-N-methyl-4-[7-(quinolin-6-ylmethyl)imidazo[1,2-b][1,2,4]triazin-2-yl]benzamide dihydrochloride has a gelling behavior, mostly prominent at pHs above 3.5, which can compromise tablet disintegration and dissolution rate. Drug load and disintegrant type/levels can influence this behavior and need to be carefully selected to ensure adequate in vitro performance.

Bulk density = assay type: physicochemical
Excerpt: 2-fluoro-N-methyl-4-[7-(quinolin-6-ylmethyl)imidazo[1,2-b][1,2,4]triazin-2-yl]benzamide dihydrochloride has a very low bulk density (0.085 g/mL), which justifies the need of a densification step prior tabletting. Wet granulation was identified as the most suitable technology for this compound.

[1] = Solubility at different pH

CNC(=O)c1ccc(-c2cnc3ncc(Cc4ccc5ncccc5c4)n3n2)cc1F [2-fluoro-N-methyl-4-[7-(quinolin-6-ylmethyl)imidazo[1,2-b][1,2,4]triazin-2-yl]benzamide dihydrochloride]
pH at which gelling behavior is mostly prominent (Gelling behavior): above 3.5
bulk density (Bulk density): 0.085 g/mL
solubility ([1]; pH 1, simulated gastric fluid): 7200 µg/mL
solubility ([1]; pH 6.8, aqueous buffer): 79.3 µg/mL
